Test results: patent US20120101137A1, “NOVEL THIOPHENECARBOXAMIDE DERIVATIVE AND PHARMACEUTICAL USE THEREOF” (SANWA KAGAKU KENKYUSHO CO., LTD., priority 2009, published 2012)
Structures can show the parent of a compound that is named as a salt.

molecular target: T1, human glucokinase (Homo sapiens, UniProt P35557); experiment: Measurement of glucokinase activity (G6PDH-coupled, absorbance at 340 nm); type: biochemical; details: read-out: GK activation effect (%)
T1 construct: made in house; host or cells: E. coli
T1 sequence (P35557 16-465): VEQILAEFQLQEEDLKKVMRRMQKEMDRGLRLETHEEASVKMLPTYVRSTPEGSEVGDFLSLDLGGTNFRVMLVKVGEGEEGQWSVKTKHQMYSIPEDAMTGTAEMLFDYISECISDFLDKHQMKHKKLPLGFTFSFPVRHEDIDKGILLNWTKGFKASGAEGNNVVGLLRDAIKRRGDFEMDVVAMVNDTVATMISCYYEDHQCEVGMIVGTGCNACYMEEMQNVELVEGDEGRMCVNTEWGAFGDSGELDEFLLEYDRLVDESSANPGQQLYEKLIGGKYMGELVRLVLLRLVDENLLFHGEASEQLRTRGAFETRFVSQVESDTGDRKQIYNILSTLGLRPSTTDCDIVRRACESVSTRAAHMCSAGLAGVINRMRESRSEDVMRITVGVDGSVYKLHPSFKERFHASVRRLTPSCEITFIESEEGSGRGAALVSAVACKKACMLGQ
Description: To the EcoRI, HindIII site of a pQE-80 expression vector were introduced a DNA fragment in which the same restriction enzyme site had been added to the N-terminal deficiency (1-15 amino acids deficiency)-encoding region of a human GK. E. coli was transformed by using this plasmid to express a human glucokinase, and purification was conducted as follows.
A fungus body that had been collected from 200 ml of an E. coli culture solution was collected and suspended in 20 ml of Extraction buffer A (20 mM HEPES, pH 8.0, 1 mM MgCl2, 150 mM NaCl, 2 mM mercaptoethanol, 0.25 mg/ml lysozyme, […] sodium azide), and the suspension was stood still at room temperature for 5 minutes. 20 ml of Extraction buffer B (1.5 M NaCl, 100 mM CaCl2, 100 mM MgCl2, 0.02 mg/ml DNA catabolic enzyme 1, a protease inhibitor tablet (Complete (registered trademark) 1697498): one tablet per 20 ml of the buffer) was added therero, followed by standing still at room temperature for 5 minutes. The extract liquid was then centrifuged by 15,000 g for 30 minutes at 4° C., and the supernatant was used as an E. coli extract liquid. The E. coli extract liquid was filtered by a 0.45 μm filter and applied to an Ni-NTA agarose 2 mL bed that had been equilibrated with a buffer (20 mM HEPES pH 8.0, 0.5 M NaCl) comprising 20 mM of imidazole. The bed was washed with about 10 ml of a washing buffer and eluted stepwise with buffers (20 mM HEPES pH 8.0, 0.5 M NaCl) each comprising imidazole by from 40 to 500 mM. Each of the column fractions was analyzed by using SDS gel electrophoresis, and the fraction comprising hGK (MW: 52 KDa) was concentrated. The concentrated sample was then passed through a Sephacryl S-200HR (11/60) gel filtration column and eluted with buffer B (20 mM HEPES, pH 8.0, 1 mM MgCl2, 150 mM NaCl, 1 mM DTT). The eluted fraction was analyzed by SDS gel electrophoresis, and the fraction comprising hGK was concentrated. Finally, 50% glycerol was added to the fraction, and the fraction was stored at −20° C.
178 μl of GK assay mix (25 mM Hepes buffer (pH 7.1), 25 mM KCl, 2 mM MgCl2, 1 mM NADP, 1 mM dithiotheitol, 2 unit/mL G6PDH, 5 mM D-glucose, a suitable amount of GK) was added to a UV permeable 96-well plate. 2 μl of the test compound dissolved in DMSO was added thereto, followed by standing still at room temperature for 10 minutes, and 20 μl al of 20 mM ATP was then added thereto to start a reaction. An absorbance at 340 nm was measured by Spectra Max Plus for 5 minutes at intervals of 30 seconds at room temperature, and the compound was evaluated in the reaction at the first 3 minutes.

In order of rising activation at 10 µM:
1. Cc1sc([C@@H]2C[C@@H](F)CN2C(=O)CNS(C)(=O)=O)cc1C(=O)Nc1ncc(F)s1 [Example 12, (−)-5-[(2S,4R)-4-Fluoro-1-(2-methanesulfonylaminoacetyl)pyrrolidin-2-yl]-2-methylthiophene-3-carboxylic acid (5-fluorothiazol-2-yl)amide]  630%
2. CC(=O)N[C@@H](C)C(=O)N1C[C@H](F)C[C@H]1c1cc(C(=O)Nc2ncc(F)s2)c(C)s1 [Example 23, (−)-5-[(2S,4R)-1-((S)-2-Acetylaminopropionyl)-4-fluoropyrrolidin-2-yl]-2-methylthiophene-3-carboxylic acid (5-fluorothiazol-2-yl)amide]  641%

same assay, conditions: test compound at final concentration of 10 μM, 5 mM D-glucose, in comparison with a well that did not comprise the compound; read-out: GK activation effect (%)

In order of falling activation at 10 µM:
1. Cc1sc([C@@H]2C[C@@H](F)CN2C(=O)CN(C)CC(=O)O)cc1C(=O)Nc1ncc(F)s1 [Example 38, [(2-{(2S,4R)-4-Fluoro-2-[4-(5-fluorothiazol-2-ylcarbamoyl)-5-methylthiophen-2-yl]pyrrolidin-1-yl}-2-oxoethyl)methylamino]acetic acid hydrochloride]  801%
2. CCCCCN(CC(=O)O)CC(=O)N1CCCC1c1cc(C(=O)Nc2ncc(F)s2)c(C)s1 (stereo not drawn) [Example 81, [(2-[2-[4-(5-Fluorothiazol-2-ylcarbamoyl)-5-methylthiophen-2-yl]pyrrolidin-1-yl]-2-oxoethyl)pentylamino]acetic acid]  787%
3. CCCCCN(CC(=O)O)CC(=O)N1C[C@H](F)C[C@H]1c1cc(C(=O)Nc2ncc(F)s2)c(C)s1 [Example 80, [(2-[(2S,4R)-4-Fluoro-2-[4-(5-fluorothiazol-2-ylcarbamoyl)-5-methylthiophen-2-yl]pyrrolidin-1-yl]-2-oxoethyl)pentylamino]acetic acid]  752%
4. Cc1sc(C2CCCN2C(=O)CN(C)CCCCC(=O)O)cc1C(=O)Nc1ncc(Cl)s1 (stereo not drawn) [Example 79, 5-[(2-{2-[4-(5-Chlorothiazol-2-ylcarbamoyl)-5-methylthiophen-2-yl]pyrrolidin-1-yl}-2-oxoethyl)methylamino]pentanoic acid hydrochloride]  717%
5. Cc1sc(C2CCCN2C(=O)CN(C)CCCCC(=O)O)cc1C(=O)Nc1ncc(F)s1 (stereo not drawn) [Example 78, 5-[(2-{2-[4-(5-Fluorothiazol-2-ylcarbamoyl)-5-methylthiophen-2-yl}pyrrolidin-1-yl]-2-oxoethyl)methylamino]pentanoic acid hydrochloride]  695%
6. Cc1sc(C2CCCN2C(=O)[C@H](C)NC(N)=O)cc1C(=O)Nc1ncc(F)s1 (single isomer, unassigned; (-)) [Example 22]  613%
7. Cc1sc(C2CCCN2C(=O)CNC(N)=O)cc1C(=O)Nc1ncc(F)s1 (single isomer, unassigned; (-)) [Example 10, (−)-2-Methyl-5-[1-(2-ureidoacetyl)pyrrolidin-2-yl]thiophene-3-carboxylic acid (5-fluorothiazol-2-yl)amide]  600%
